Reference: patent publication US20210017492A1, “USE OF RETINOIC ACID IN T-CELL MANUFACTURING” (Immatics US, Inc., priority 2019, published 2021)
Entries after “also recorded” stand apart in the source; their conditions may differ. Like-named read-outs stand apart in the source and are kept apart here.

Key:
T cells [1] = experiment: Flow cytometry staining of Day 6 cells for expression of the transduced TCR (PRAME dextramer); type: cell-based, human
Description: Flow cytometry staining was performed on Day 6 cells to assess the expression of TCR.

T cells [2] = system: T cells
Description: On Day 3, cells were fed with media containing IL-7 and IL-15. On Day 6, cells were harvested and about half of cells were cryopreserved. The other half of cells were transferred to G-Rex 6-well plate, to which 10 ml of fresh medium was added without RA (Group 1) or with RA (100 nM/ml) (Group 2). Some Day 6 cells were analysed by flow cytometry to assess transduction efficiency. On Day 8, remaining cells were harvested and cryopreserved.

[3] = Day 6 or Day 8 cells untreated or treated with RA, data not shown
[4] = Day 6 or Day 8 cells, Wilcoxon test
[5] = Day 6 or Day 8 cells, data not shown
[6] = RA-treated Day 6 T cell products
[7] = RA-treated Day 8 T cell products

SMILES: CC1=C(/C=C/C(C)=C/C=C/C(C)=C/C(=O)O)C(C)(C)CCC1 [RA, all-trans-retinoic acid]
- % CD3+ of live lymphocytes, with vs without RA (T cells [1]; Donor 1): comparable
- % CD8+ of live CD3+ cell, with vs without RA (T cells [1]; Donor 1): comparable
- % of CD8+ cells expressing the transduced TCR (T cells [1]; Donor 1, with RA treatment (ATRA 100 nM/ml)): 32.9%
- % CD3+ of live lymphocytes, with vs without RA (T cells [1]; Donor 2): comparable
- % CD8+ of live CD3+ cell, with vs without RA (T cells [1]; Donor 2): comparable
- % of CD8+ cells expressing the transduced TCR (T cells [1]; Donor 2, with RA treatment (ATRA 100 nM/ml)): 13.3%
- CD38 expression on RA-treated CD8+ T cells (T cells [2]): expressed on all RA-treated CD8+ T cells
- RA-treated CD103+ cells that also express CCR9 (T cells [2]): almost all
- effect of RA treatment on CD45RA+ CD3+CD8+ T cells (T cells [2]; 1-way ANOVA on 3 data sets): significantly decreases
- effect of RA treatment on transitional CD3+CD8+ T cells (T cells [2]; 1-way ANOVA on 3 data sets): significantly decreases
- effect of RA treatment on CD45RO+ T cells (T cells [2]; 1-way ANOVA on 3 data sets, CD3+CD8+ T cells): significantly increases
- CD25+ cells, with vs without RA treatment (T cells [2]; Day 6 or Day 8 T cell products, Paired t-test): does not impact; also recorded: no significant difference
- CD73, untreated or treated with RA (T cells [2]; Day 6 or Day 8 cells): no difference was observed between Day 6 or Day 8 cells
- CD95, untreated or treated with RA (T cells [2]; Day 6 or Day 8 cells): no difference was observed between Day 6 or Day 8 cells
- CD73 positive cells (T cells [2]; [3]): untreated or treated with RA (<5% positive, data not shown)
- CD95 positive cells (T cells [2]; [3]): untreated or treated with RA (>90% positive, data not shown)
- CD27+ cells, treated vs untreated (T cells [2]; [4]): no significant difference; also recorded: No difference was seen between treated and untreated and
- CD28+ cells, treated vs untreated (T cells [2]; [4]): no significant difference; also recorded: No difference was seen between treated and untreated and
- CD39+ cells, untreated or treated with RA (T cells [2]; [4]): no significant difference; also recorded: no difference was observed between Day 6 or Day 8 cells
- CXCR4+ cells, untreated or treated with RA (T cells [2]; [4]): no significant difference; also recorded: no difference was observed between Day 6 or Day 8 cells
- HLA-DR+ cells, untreated or treated with RA (T cells [2]; [4]): no significant difference; also recorded: no difference was observed between Day 6 or Day 8 cells
- CD56 (NK-related marker), treated vs untreated (T cells [2]; [5]): No difference was seen between treated and untreated and
- CD94 (NK-related marker), treated vs untreated (T cells [2]; [5]): No difference was seen between treated and untreated and
- CD314 (NK-related marker), treated vs untreated (T cells [2]; [5]): No difference was seen between treated and untreated and
- effect of RA treatment on Tcm (T cells [2]; FIG. 10): increases
- effect of RA treatment on Tem (T cells [2]; FIG. 10): little effect
- effect of RA treatment on Temra (T cells [2]; FIG. 10): little effect
- effect of RA treatment on naïve/Tscm (T cells [2]; FIG. 10): significantly decreases
- CD103 expression, with vs without RA treatment (T cells [2]; FIG. 19B): does not significantly affect
- CD45RO+ T cells (T cells [2]; [6]): 80.3%
- CD62L+ T cells (T cells [2]; [6]): 7.74%
- naïve/Tscm (CD45RA+CD197+) (T cells [2]; [6]): 6.07%
- CD45RO+ T cells (T cells [2]; [7]): 84.5%
- CD62L+ T cells vs without RA treatment (T cells [2]; [7]): significantly fewer
- naïve/Tscm (CD45RA+CD197+) (T cells [2]; [7]): 4.25%
- CCR9+ cells, with vs without RA treatment (T cells [2]; Wilcoxon test, p=0.0313): significantly increases
- CD25+ cells, Day 8 RA-treated vs Day 6 T cell products without RA treatment (T cells [2]; Wilcoxon test, p=0.0313): significantly fewer
- CD38+ cells, with vs without RA treatment (T cells [2]; Wilcoxon test, p=0.0313): significantly increases
- CD38 MFI (Mean Fluorescence Intensity) in CD8+ T cells vs without RA treatment (T cells [2]; Wilcoxon test, p=0.0313): higher
- CD49a+ cells, with vs without RA treatment (T cells [2]; Wilcoxon test, p=0.0313): significantly increases
- CD69+ cells, with vs without RA treatment (T cells [2]; Wilcoxon test, p=0.0313): significantly increases
- ICOS+ cells, with vs without RA treatment (T cells [2]; Wilcoxon test, p=0.0313): lower levels; also recorded: significantly decreases
- α4β7+ cells, with vs without RA treatment (T cells [2]; Wilcoxon test, p=0.0313, α4+ and β7+ detected separately): significantly increases
- CD197+ cells (T cells [2]; between Day 6 and Day 8 T cell products with or without RA treatment): no significant difference
- CCR6, effect of RA treatment (T cells [2]; data not shown): to low frequency and no differences (data not shown)
- expression of CCR9 on DEX+CD3+CD8+α4β7+ cells vs without RA treatment (T cells [2]; p=0.0313): significantly higher
- α4β7 expression in CD3+CD8+DEX+ cells vs without RA treatment (T cells [2]; p=0.0313): significantly higher
- α4β7+ cells present in CD3+CD8+DEX+ cells (T cells [2]; with RA treatment, CD49d (α4) and β7): 54.6%
